# Results published in patent US20060293307A1, “Oxazolidinone derivatives as antimicrobials” (priority 2002, published 2006).
# Read-outs that look alike come from different tables or passages of the source.
# Tests used:
# S. aureus ATCC29213 = experiment: MIC, agar incorporation method; assay type: cell-based, Staphylococcus aureus; conditions: Staphylococcus aureus
# S. aureus SG 511 = experiment: MIC, agar incorporation method; assay type: cell-based, Staphylococcus aureus; conditions: Staphylococcus aureus, SG511
# S. aureus (MRSA) 15187 = experiment: MIC, agar incorporation method; assay type: cell-based, Staphylococcus aureus; conditions: Staphylococcus aureus
# S. aureus (MRSA) ST450 = experiment: MIC, agar incorporation method; assay type: cell-based, Staphylococcus aureus; conditions: Staphylococcus aureus
# S. aureus (Smith 49951) = experiment: MIC, agar incorporation method; assay type: cell-based, Staphylococcus aureus; conditions: Staphylococcus aureus
# [1] = tested on: S. epidermidis ATCC 12228; experiment: MIC, agar incorporation method; assay type: cell-based, Staphylococcus epidermidis; conditions: Staphylococcus epidermidis, ATCC12228
# [2] = tested on: S. epidermidis (MRSE) 23760; experiment: MIC, agar incorporation method; assay type: cell-based, Staphylococcus epidermidis; conditions: Staphylococcus epidermidis
# [3] = tested on: S. epidermidis (MRSE)32965; experiment: MIC, agar incorporation method; assay type: cell-based, Staphylococcus epidermidis; conditions: Staphylococcus epidermidis
# E. faecalis 29212 = experiment: MIC, agar incorporation method; assay type: cell-based; conditions: Enterococcus faecalis
# E. faecalis 21777 = experiment: MIC, agar incorporation method; assay type: cell-based; conditions: Enterococcus faecalis
# [4] = tested on: Serratia marcescens 12999; experiment: MIC, agar incorporation method; assay type: cell-based
# S. pneumoniae AB-2 = experiment: MIC, agar incorporation method; assay type: cell-based, Streptococcus pneumoniae; conditions: Streptococcus pneumoniae, AB2
# S. pneumoniae AB 10 = experiment: MIC, agar incorporation method; assay type: cell-based, Streptococcus pneumoniae; conditions: Streptococcus pneumoniae, AB10
# S. pneumoniae AB 31 = experiment: MIC, agar incorporation method; assay type: cell-based, Streptococcus pneumoniae; conditions: Streptococcus pneumoniae, AB31
# S. pneumoniae AB 17 = experiment: MIC, agar incorporation method; assay type: cell-based, Streptococcus pneumoniae; conditions: Streptococcus pneumoniae, AB17
# S. pneumoniae AB 21 = experiment: MIC, agar incorporation method; assay type: cell-based, Streptococcus pneumoniae; conditions: Streptococcus pneumoniae, AB21
# S. pneumoniae CS 1687 = experiment: MIC, agar incorporation method; assay type: cell-based, Streptococcus pneumoniae; conditions: Streptococcus pneumoniae, CS1687
# S. pneumoniae AB 25 = experiment: MIC, agar incorporation method; assay type: cell-based, Streptococcus pneumoniae; conditions: Streptococcus pneumoniae, AB25
# S. pneumoniae AB 29 = experiment: MIC, agar incorporation method; assay type: cell-based, Streptococcus pneumoniae; conditions: Streptococcus pneumoniae, AB29
# S. pneumoniae ATCC 6303 = experiment: MIC, agar incorporation method; assay type: cell-based, Streptococcus pneumoniae; conditions: Streptococcus pneumoniae, ATCC6303
# S. pyogenes 19615 = experiment: MIC, agar incorporation method; assay type: cell-based, Streptococcus pyogenes; conditions: Streptococcus pyogenes
# S. pyogenes 25147 = experiment: MIC, agar incorporation method; assay type: cell-based, Streptococcus pyogenes; conditions: Streptococcus pyogenes
# Moraxella M1 = experiment: MIC, agar incorporation method; assay type: cell-based
# Moraxella cata. M2 = experiment: MIC, agar incorporation method; assay type: cell-based
# H. influenzae 451 = experiment: MIC against Haemophilus strains; assay type: cell-based; conditions: Haemophilus influenzae; s. No. 8, H. influenzae 451; read-out: MIC
# [5] = S. No. 2, S. aureus ATCC29213, read-out: MIC
# [6] = S. No. 3, S. aureus SG 511, read-out: MIC
# [7] = S. No. 4, S. aureus (MRSA) 15187, read-out: MIC
# [8] = S. No. 6, S. aureus (MRSA) ST450, read-out: MIC
# [9] = S. No. 9, S. aureus (Smith 49951), read-out: MIC
# [10] = S. No. 10, S. epidermidis ATCC 12228, read-out: MIC
# [11] = S. No. 11, S. epidermidis (MRSE) 23760, read-out: MIC
# [12] = S. No. 13, S. epidermidis (MRSE)32965, read-out: MIC
# [13] = S. No. 17, E. faecalis 29212, read-out: MIC
# [14] = S. No. 18, E. faecalis 21777, read-out: MIC
# [15] = S. No. 29, Serratia marcescens 12999, read-out: MIC
# [16] = S. No. 31, S. pneumoniae AB-2, read-out: MIC
# [17] = S. No. 35, S. pneumoniae AB 10, read-out: MIC
# [18] = S. No. 36, S. pneumoniae AB 31, read-out: MIC
# [19] = S. No. 40, S. pneumoniae AB 17, read-out: MIC
# [20] = S. No. 41, S. pneumoniae AB 21, read-out: MIC
# [21] = S. No. 44, S. pneumoniae CS 1687, read-out: MIC
# [22] = S. No. 45, S. pneumoniae AB 25, read-out: MIC
# [23] = S. No. 46, S. pneumoniae AB 29, read-out: MIC
# [24] = S. No. 50, S. pneumoniae ATCC 6303, read-out: MIC
# [25] = S. No. 51, S. pyogenes 19615, read-out: MIC
# [26] = S. No. 52, S. pyogenes 25147, read-out: MIC
# [27] = S. No. 58, Moraxella M1, read-out: MIC
# [28] = S. No. 59, Moraxella cata. M2, read-out: MIC
smiles,measurement,setting,value
"CC(=O)NC[C@H]1CN(c2ccc(N3CCN(c4ccc(C=O)s4)CC3)c(F)c2)C(=O)O1 [Compound No. 2, (S)—N-[[3-[3-Fluoro-4-[4-(5-formyl-2-thienyl)-1-piperazinyl]phenyl]-2-oxo-5-oxazolidinyl]methyl]acetamide]",MIC,S. aureus ATCC29213; [5],1 µg/mL
same,MIC,S. aureus SG 511; [6],0.5 µg/mL
same,MIC,S. aureus (MRSA) 15187; [7],0.5 µg/mL
same,MIC,S. aureus (MRSA) ST450; [8],1 µg/mL
same,MIC,S. aureus (Smith 49951); [9],0.5 µg/mL
same,MIC,[1]; [10],0.5 µg/mL
same,MIC,[2]; [11],< 0.25 µg/mL
same,MIC,[3]; [12],< 0.25 µg/mL
same,MIC,E. faecalis 29212; [13],< 0.25 µg/mL
same,MIC,E. faecalis 21777; [14],0.5 µg/mL
same,MIC,[4]; [15],> 16 µg/mL
same,MIC,S. pneumoniae AB-2; [16],< 0.25 µg/mL
same,MIC,S. pneumoniae AB 10; [17],< 0.25 µg/mL
same,MIC,S. pneumoniae AB 31; [18],0.5 µg/mL
same,MIC,S. pneumoniae AB 17; [19],0.5 µg/mL
same,MIC,S. pneumoniae AB 21; [20],0.5 µg/mL
same,MIC,S. pneumoniae CS 1687; [21],0.5 µg/mL
same,MIC,S. pneumoniae AB 25; [22],< 0.25 µg/mL
same,MIC,S. pneumoniae AB 29; [23],< 0.25 µg/mL
same,MIC,S. pneumoniae ATCC 6303; [24],0.5 µg/mL
same,MIC,S. pyogenes 19615; [25],0.5 µg/mL
same,MIC,S. pyogenes 25147; [26],0.5 µg/mL
same,MIC,Moraxella M1; [27],0.5 µg/mL
same,MIC,Moraxella cata. M2; [28],0.5 µg/mL
same,MIC,H. influenzae 451,16 µg/mL
"CC(=O)NC[C@H]1CN(c2ccc(N3CCN(c4ccc(C=O)o4)CC3)c(F)c2)C(=O)O1 [Compound No. 3, (S)—N-[[3-[3-Fluoro-4-[4-(5-formyl-2-furyl)-1-piperazinyl]phenyl]-2-oxo-5-oxazolidinyl]methyl]acetamide]",MIC,S. aureus ATCC29213; [5],1 µg/mL
same,MIC,S. aureus SG 511; [6],1 µg/mL
same,MIC,S. aureus (MRSA) 15187; [7],1 µg/mL
same,MIC,S. aureus (MRSA) ST450; [8],1 µg/mL
same,MIC,S. aureus (Smith 49951); [9],0.5 µg/mL
same,MIC,[1]; [10],0.25 µg/mL
same,MIC,[2]; [11],0.25 µg/mL
same,MIC,[3]; [12],0.5 µg/mL
same,MIC,E. faecalis 29212; [13],0.5 µg/mL
same,MIC,E. faecalis 21777; [14],0.5 µg/mL
same,MIC,[4]; [15],> 16 µg/mL
same,MIC,S. pneumoniae AB-2; [16],< 0.125 µg/mL
same,MIC,S. pneumoniae AB 10; [17],< 0.125 µg/mL
same,MIC,S. pneumoniae AB 31; [18],0.25 µg/mL
same,MIC,S. pneumoniae AB 17; [19],< 0.125 µg/mL
same,MIC,S. pneumoniae AB 21; [20],0.25 µg/mL
same,MIC,S. pneumoniae CS 1687; [21],0.25 µg/mL
same,MIC,S. pneumoniae AB 25; [22],0.25 µg/mL
same,MIC,S. pneumoniae AB 29; [23],0.25 µg/mL
same,MIC,S. pneumoniae ATCC 6303; [24],0.25 µg/mL
same,MIC,S. pyogenes 19615; [25],0.25 µg/mL
same,MIC,S. pyogenes 25147; [26],0.25 µg/mL
same,MIC,Moraxella M1; [27],2 µg/mL
same,MIC,Moraxella cata. M2; [28],1 µg/mL
same,MIC,H. influenzae 451,8 µg/mL
"CC(=O)NC[C@H]1CN(c2ccc(N3CCN(c4ccc([N+](=O)[O-])o4)CC3)c(F)c2)C(=O)O1 [Compound No. 4, (S)—N-[[3-[3-Fluoro-4-[4-(5-nitro-2-furyl)-1-piperazinyl]phenyl]-2-oxo-5-oxazolidinyl]methyl]acetamide]",MIC,S. aureus ATCC29213; [5],16 µg/mL
same,MIC,S. aureus SG 511; [6],16 µg/mL
same,MIC,S. aureus (MRSA) 15187; [7],8 µg/mL
same,MIC,S. aureus (MRSA) ST450; [8],8 µg/mL
same,MIC,S. aureus (Smith 49951); [9],16 µg/mL
same,MIC,[1]; [10],4 µg/mL
same,MIC,[2]; [11],4 µg/mL
same,MIC,[3]; [12],4 µg/mL
same,MIC,E. faecalis 29212; [13],8 µg/mL
same,MIC,E. faecalis 21777; [14],8 µg/mL
same,MIC,[4]; [15],> 16 µg/mL
same,MIC,S. pneumoniae AB-2; [16],8 µg/mL
same,MIC,S. pneumoniae AB 10; [17],4 µg/mL
same,MIC,S. pneumoniae AB 31; [18],8 µg/mL
same,MIC,S. pneumoniae AB 17; [19],4 µg/mL
same,MIC,S. pneumoniae AB 21; [20],8 µg/mL
same,MIC,S. pneumoniae CS 1687; [21],4 µg/mL
same,MIC,S. pneumoniae AB 25; [22],4 µg/mL
same,MIC,S. pneumoniae AB 29; [23],4 µg/mL
same,MIC,S. pneumoniae ATCC 6303; [24],4 µg/mL
same,MIC,S. pyogenes 19615; [25],4 µg/mL
same,MIC,S. pyogenes 25147; [26],4 µg/mL
same,MIC,Moraxella M1; [27],> 16 µg/mL
same,MIC,Moraxella cata. M2; [28],> 16 µg/mL
"CN[C@H](CC(C)C)C(=O)N[C@H]1C(=O)N[C@@H](CC(N)=O)C(=O)N[C@H]2C(=O)N[C@H]3C(=O)N[C@H](C(=O)N[C@H](C(=O)O)c4cc(O)cc(O)c4-c4cc3ccc4O)[C@H](O)c3ccc(c(Cl)c3)Oc3cc2cc(c3O[C@@H]2O[C@H](CO)[C@@H](O)[C@H](O)[C@H]2O[C@H]2C[C@](C)(N)[C@H](O)[C@H](C)O2)Oc2ccc(cc2Cl)[C@H]1O [Vancomycin, reference compound]",MIC,S. aureus ATCC29213; ATCC29213,0.5 µg/mL
same,MIC,S. aureus SG 511,0.5 µg/mL
same,MIC,S. aureus (MRSA) 15187; MRSA,0.5 µg/mL
same,MIC,S. aureus (MRSA) ST450; MRSA,0.5 µg/mL
same,MIC,S. aureus (Smith 49951),1 µg/mL
same,MIC,[1],1 µg/mL
same,MIC,[2]; MRSE,2 µg/mL
same,MIC,[3]; MRSE,2 µg/mL
same,MIC,E. faecalis 29212; 29212,4 µg/mL
same,MIC,E. faecalis 21777; 21777,2 µg/mL
same,MIC,"[4]; Serratia marcescens, 12999",> 16 µg/mL
same,MIC,S. pneumoniae AB-2,0.5 µg/mL
same,MIC,S. pneumoniae AB 10,0.25 µg/mL
same,MIC,S. pneumoniae AB 31,0.25 µg/mL
same,MIC,S. pneumoniae AB 17,0.25 µg/mL
same,MIC,S. pneumoniae AB 21,0.25 µg/mL
same,MIC,S. pneumoniae CS 1687,0.25 µg/mL
same,MIC,S. pneumoniae AB 25,0.25 µg/mL
same,MIC,S. pneumoniae AB 29,0.25 µg/mL
same,MIC,S. pneumoniae ATCC 6303,0.25 µg/mL
same,MIC,S. pyogenes 19615; 19615,0.5 µg/mL
same,MIC,S. pyogenes 25147; 25147,0.5 µg/mL
same,MIC,"Moraxella M1; Moraxella, M1",> 8 µg/mL
same,MIC,"Moraxella cata. M2; Moraxella, CATA.M2",> 8 µg/mL
